Tests used:
windgrass [1] = assay: Test Example 4: herbicidal effect by soil treatment (Table 19, symbol L); assay type: in vivo, windgrass (Apera spica-venti); details: amount of applied herbicide 320 g/ha
Outline: (§1)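 Seeds were sown in sterilized diluvial soil and covered with about 1.5 cm of soil. An emulsion formulation diluted with water to a predetermined herbicide amount was sprayed evenly onto the soil surface. Plants grew in a greenhouse at 25° C. to 30° C., and the effect was scored three weeks after application using criteria from an earlier test.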

Italian ryegrass [2] = assay: Test Example 4: herbicidal effect by soil treatment (Table 19, symbol K); assay type: in vivo, Italian ryegrass (Lolium multiflorum); details: amount of applied herbicide 320 g/ha
Outline: as §1

lambsquarters [3] = assay: Test Example 4: herbicidal effect by soil treatment (Table 19, symbol O); assay type: in vivo, lambsquarters (Chenopodium album); details: amount of applied herbicide 320 g/ha
Outline: as §1

barnyard grass [4] = assay: Test Example 4: herbicidal effect by soil treatment (Table 19, symbol H); assay type: in vivo, barnyard grass (Echinochloa crus-galli); details: amount of applied herbicide 320 g/ha
Outline: as §1

Italian ryegrass [5] = assay: Test Example 5: herbicidal effect by foliage application, plastic box (Table 20, symbol K); assay type: in vivo, Italian ryegrass (Lolium multiflorum); details: amount of applied herbicide 320 g/ha; foliage application after 14-day growth; evaluated three weeks after application
Outline: (§2)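 Plants sown in sterilized diluvial soil and grown 14 days in a greenhouse at 25° C to 30° C, then sprayed on the foliage with the compound's emulsion diluted in water to a predetermined herbicide amount. Injury to weeds and crops scored three weeks after application on a visual rating scale.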

barnyard grass [6] = assay: Test Example 5: herbicidal effect by foliage application, plastic box (Table 20, symbol H); assay type: in vivo, barnyard grass (Echinochloa crus-galli); details: amount of applied herbicide 320 g/ha; foliage application after 14-day growth; evaluated three weeks after application
Outline: as §2

redroot pigweed [7] = assay: Test Example 4: herbicidal effect by soil treatment (Table 19, symbol N); assay type: in vivo, redroot pigweed (Amaranthus retroflexus); details: amount of applied herbicide 320 g/ha
Outline: as §1

green foxtail [8] = assay: Test Example 4: herbicidal effect by soil treatment (Table 19, symbol G); assay type: in vivo, green foxtail (Setaria viridis); details: amount of applied herbicide 320 g/ha
Outline: as §1

rice flat sedge = assay: Test Example 3: herbicidal effect by foliage application, Wagner pot (Table 18, symbol E); assay type: in vivo, rice flat sedge (Cyperus iria); details: 320 g/ha
Outline: (§3)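 Plants were sown in alluvial soil held under 0.1–0.5 cm standing water and grown 14 days in a greenhouse at 25–30 °C. An emulsifiable formulation, water-diluted to the set dose, was then sprayed onto the foliage, and effects were scored three weeks later using previously defined criteria.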

wild oat [9] = assay: Test Example 5: herbicidal effect by foliage application, plastic box (Table 20, symbol I); assay type: in vivo, wild oat (Avena fatua); details: amount of applied herbicide 320 g/ha; foliage application after 14-day growth; evaluated three weeks after application
Outline: as §2

southern crabgrass [10] = assay: Test Example 4: herbicidal effect by soil treatment (Table 19, symbol F); assay type: in vivo, southern crabgrass (Digitaria ciliaris); details: amount of applied herbicide 320 g/ha
Outline: as §1

persian speedwell [11] = assay: Test Example 5: herbicidal effect by foliage application, plastic box (Table 20, symbol R); assay type: in vivo, Persian speedwell (Veronica persica); details: amount of applied herbicide 320 g/ha; foliage application after 14-day growth; evaluated three weeks after application
Outline: as §2

redroot pigweed [12] = assay: Test Example 5: herbicidal effect by foliage application, plastic box (Table 20, symbol N); assay type: in vivo, redroot pigweed (Amaranthus retroflexus); details: amount of applied herbicide 320 g/ha; foliage application after 14-day growth; evaluated three weeks after application
Outline: as §2

persian speedwell [13] = assay: Test Example 4: herbicidal effect by soil treatment (Table 19, symbol R); assay type: in vivo, Persian speedwell (Veronica persica); details: amount of applied herbicide 320 g/ha
Outline: as §1

velvetleaf [14] = assay: Test Example 4: herbicidal effect by soil treatment (Table 19, symbol M); assay type: in vivo, velvetleaf (Abutilon theophrasti); details: amount of applied herbicide 320 g/ha
Outline: as §1

chickweed [15] = assay: Test Example 5: herbicidal effect by foliage application, plastic box (Table 20, symbol P); assay type: in vivo, common chickweed (Stellaria media); details: amount of applied herbicide 320 g/ha; foliage application after 14-day growth; evaluated three weeks after application
Outline: as §2

wild oat [16] = assay: Test Example 4: herbicidal effect by soil treatment (Table 19, symbol I); assay type: in vivo, wild oat (Avena fatua); details: amount of applied herbicide 320 g/ha
Outline: as §1

lambsquarters [17] = assay: Test Example 5: herbicidal effect by foliage application, plastic box (Table 20, symbol O); assay type: in vivo, lambsquarters (Chenopodium album); details: amount of applied herbicide 320 g/ha; foliage application after 14-day growth; evaluated three weeks after application
Outline: as §2

Chinese sprangletop = assay: Test Example 3: herbicidal effect by foliage application, Wagner pot (Table 18, symbol D); assay type: in vivo, chinese sprangletop (Leptochloa chinensis); details: 320 g/ha
Outline: as §3

velvetleaf [18] = assay: Test Example 5: herbicidal effect by foliage application, plastic box (Table 20, symbol M); assay type: in vivo, velvetleaf (Abutilon theophrasti); details: amount of applied herbicide 320 g/ha; foliage application after 14-day growth; evaluated three weeks after application
Outline: as §2

barnyard grass [19] = assay: Test Example 3: herbicidal effect by foliage application, Wagner pot (Table 18, symbol H); assay type: in vivo, barnyard grass (Echinochloa crus-galli); details: 320 g/ha
Outline: as §3

blackgrass [20] = assay: Test Example 5: herbicidal effect by foliage application, plastic box (Table 20, symbol J); assay type: in vivo, blackgrass (Alopecurus myosuroides); details: amount of applied herbicide 320 g/ha; foliage application after 14-day growth; evaluated three weeks after application
Outline: as §2

blackgrass [21] = assay: Test Example 4: herbicidal effect by soil treatment (Table 19, symbol J); assay type: in vivo, blackgrass (Alopecurus myosuroides); details: amount of applied herbicide 320 g/ha
Outline: as §1

green foxtail [22] = assay: Test Example 5: herbicidal effect by foliage application, plastic box (Table 20, symbol G); assay type: in vivo, green foxtail (Setaria viridis); details: amount of applied herbicide 320 g/ha; foliage application after 14-day growth; evaluated three weeks after application
Outline: as §2

windgrass [23] = assay: Test Example 5: herbicidal effect by foliage application, plastic box (Table 20, symbol L); assay type: in vivo, windgrass (Apera spica-venti); details: amount of applied herbicide 320 g/ha; foliage application after 14-day growth; evaluated three weeks after application
Outline: as §2

southern crabgrass [24] = assay: Test Example 5: herbicidal effect by foliage application, plastic box (Table 20, symbol F); assay type: in vivo, southern crabgrass (Digitaria ciliaris); details: amount of applied herbicide 320 g/ha; foliage application after 14-day growth; evaluated three weeks after application
Outline: as §2

chickweed [25] = assay: Test Example 4: herbicidal effect by soil treatment (Table 19, symbol P); assay type: in vivo, common chickweed (Stellaria media); details: amount of applied herbicide 320 g/ha
Outline: as §1

Cc1ccc(-c2sc3cc(F)c(F)cc3c2-c2c(O)c(C)nn(C)c2=O)cc1 [5-003]
L: windgrass, herbicidal effect grade (windgrass [1]): 0 (Herbicidal rate of 5% or less (almost no effect))
K: Italian ryegrass, herbicidal effect grade (Italian ryegrass [2]): 0 (Herbicidal rate of 5% or less (almost no effect))
O: lambsquarters, herbicidal effect grade (lambsquarters [3]): 5 (Herbicidal rate of 90% or more (almost completely withered))
H: barnyard grass, herbicidal effect grade (barnyard grass [4]): 3 (Herbicidal rate of 40% or more and less than 70%)
Herbicidal effect by foliage application, K: Italian ryegrass (Italian ryegrass [5]): 2 (Herbicidal rate of 20% or more and less than 40%)
Herbicidal effect by foliage application, H: barnyard grass (barnyard grass [6]): 0 (Herbicidal rate of 5% or less (almost no effect))
N: redroot pigweed, herbicidal effect grade (redroot pigweed [7]): 3 (Herbicidal rate of 40% or more and less than 70%)
G: green foxtail, herbicidal effect grade (green foxtail [8]): 4 (Herbicidal rate of 70% or more and less than 90%)
herbicidal effect on rice flat sedge (E) (rice flat sedge): 5 (Herbicidal rate of 90% or more (almost completely withered))
Herbicidal effect by foliage application, I: wild oat (wild oat [9]): 0 (Herbicidal rate of 5% or less (almost no effect))
F: southern crabgrass, herbicidal effect grade (southern crabgrass [10]): 1 (Herbicidal rate of 5% or more and less than 20%)
Herbicidal effect by foliage application, R: persian speedwell (persian speedwell [11]): 5 (Herbicidal rate of 90% or more (almost completely withered))
Herbicidal effect by foliage application, N: redroot pigweed (redroot pigweed [12]): 5 (Herbicidal rate of 90% or more (almost completely withered))
R: persian speedwell, herbicidal effect grade (persian speedwell [13]): 4 (Herbicidal rate of 70% or more and less than 90%)
M: velvetleaf, herbicidal effect grade (velvetleaf [14]): 2 (Herbicidal rate of 20% or more and less than 40%)
Herbicidal effect by foliage application, P: chickweed (chickweed [15]): 5 (Herbicidal rate of 90% or more (almost completely withered))
I: wild oat, herbicidal effect grade (wild oat [16]): 0 (Herbicidal rate of 5% or less (almost no effect))
Herbicidal effect by foliage application, O: lambsquarters (lambsquarters [17]): 5 (Herbicidal rate of 90% or more (almost completely withered))
herbicidal effect on Chinese sprangletop (D) (Chinese sprangletop): 3 (Herbicidal rate of 40% or more and less than 70%)
Herbicidal effect by foliage application, M: velvetleaf (velvetleaf [18]): 5 (Herbicidal rate of 90% or more (almost completely withered))
herbicidal effect on barnyard grass (H) (barnyard grass [19]): 3 (Herbicidal rate of 40% or more and less than 70%)
Herbicidal effect by foliage application, J: blackgrass (blackgrass [20]): 0 (Herbicidal rate of 5% or less (almost no effect))
J: blackgrass, herbicidal effect grade (blackgrass [21]): 0 (Herbicidal rate of 5% or less (almost no effect))
Herbicidal effect by foliage application, G: green foxtail (green foxtail [22]): 2 (Herbicidal rate of 20% or more and less than 40%)
Herbicidal effect by foliage application, L: windgrass (windgrass [23]): 0 (Herbicidal rate of 5% or less (almost no effect))
Herbicidal effect by foliage application, F: southern crabgrass (southern crabgrass [24]): 0 (Herbicidal rate of 5% or less (almost no effect))
P: chickweed, herbicidal effect grade (chickweed [25]): 4 (Herbicidal rate of 70% or more and less than 90%)
